Laboratory results: patent US4740521A, “Saudin, a novel hypoglycemic agent” (Purdue Research Foundation, priority 1986, dated 1988)

Assays:
[1] = tested on: plasma glucose level of non-fasted rats; experiment: plasma glucose level of non-fasted rats after I.P. injection (Table 1); type: in vivo, rats (male albino); conditions: 40 mg/kg I.P.
Procedure: (§1) Male albino rats weighing from 100-150 gm were divided into groups each comprised from 7-8 rats. […] Non-fasted and fasted rats were either non-alloxanized or injected I.V. with alloxan at a dose of 40 mg/kg two days before administration of saudin. Saudin was injected I.P. in the experiment groups in a suspension form containing 0.5% carboxymethylcellulose (CMC). Control groups received I.P. injection of 0.5% CMD at a dose not exceeding 1 ml/100 gm (Maximum volume used to suspend saudin). Blood samples were taken and the plasma glucose level was estimated as indicated in the results. The method used for glucose estimation was similar to that used by Free et al., Advances in Clinical Chemistry, E. H. Sobotaka and C. P. Steward (eds.), Academic Press, New York, 6, p. 67 (1973).
non-fasted rats in response to I.P. injection of
40 mg/kg. Blood samples were taken at 1 h intervals
in heparinized tubes and plasma was separated for […]

[2] = tested on: blood sugar level of fasting mice (alloxanized); experiment: blood sugar level of fasting alloxanized mice (Table 3); type: in vivo; conditions: for Blood Sugar Level, mean S.E., 1 h: control 327 ± 46; for Blood Sugar Level, mean S.E., 2 h: control 360 ± 50; for Blood Sugar Level, mean S.E., 3 h: control 355 ± 48.5; for Blood Sugar Level, mean S.E., 4 h: control 378 ± 51.5; for Blood Sugar Level, mean S.E., 5 h: control 377 ± 57.5
Procedure: It is possible, therefore, that saudin operates by a different mechanism than the hypoglycemic agents heretofore employed, and may for that reason find unique application in medicine. The results of comparative tests are given in the following Table 3, using mice injected intravenously with 50 mg/kg of alloxan 3 days before the tests.

in vivo = conditions: mouse, ip
Description: When suspended in carboxymethylcellulose (1.5%) and injected i.p. into mice according to the method of Miller and Tainter, Proc. Soc.

animals = experiment: hypoglycemic effect in animals on injection (general statement); type: in vivo; conditions: read-out: dose producing a significant hypoglycemic effect, by injection, "above about"
Procedure: For the control of hyperglycemia, a dose between about 25 and about 110 mg/kg is effective, when administered at intervals of about 2 to about 12 hours in a tissue-compatible liquid. Normal saline solution is a suitable solvent diluent, or alternatively aqueous carboxymethylcellulose.

[3] = tested on: plasma glucose level of alloxanized and non-alloxanized rats; experiment: plasma glucose level of alloxanized and non-alloxanized rats, fasted or non-fasted (Table 2); type: in vivo, rats (male albino)
Procedure: as §1
Effect of saudin on the plasma glucose level of alloxanized and
non-alloxanized rats either fasted
or non-fasted. Blood samples were taken 2 hours after saudin injection in
tubes containing heparin.
Plasma was separated for glucose estimation.

[4] = fasting mice, 50 mg/kg alloxan i.v. 3 days before, saudin 40 mg/kg, tolbutamide 150 mg/kg

SMILES | hypoglycemic effect (in words) ([1]; non-alloxanized fed rats, two hours after injection) | Plasma glucose level, S.E., 0 h ([1]; non-fasted, non-alloxanized rats, 0 h, control 113.63 ± 7.50, saudin S.E. 3.05) | Plasma glucose level, S.E., 1 h ([1]; non-fasted, non-alloxanized rats, 1 h, control 115.25 ± 5.78, saudin S.E. 4.45) | Plasma glucose level, S.E., 2 h ([1]; non-fasted, non-alloxanized rats, 2 h, control 126.75 ± 4.62, saudin S.E. 2.31*, significant vs control at P < 0.01) | Plasma glucose level, S.E., 3 h ([1]; non-fasted, non-alloxanized rats, 3 h, control 105.00 ± 3.23, saudin S.E. 3.78) | Plasma glucose level, S.E., 4 h ([1]; non-fasted, non-alloxanized rats, 4 h, control 104.73 ± 4.11, saudin S.E. 4.81) | hypoglycemic effect in alloxanized mice (in words) ([2]; alloxanized mice, unlike tolbutamide) | Blood Sugar Level, mean S.E., 0 h ([2]; fasting mice, 50 mg/kg alloxan i.v. 3 days before, saudin 40 mg/kg, tolbutamide 150 mg/kg, 0 h, control 230 ± 40) | Blood Sugar Level, mean S.E., 1 h [2, 4] | Blood Sugar Level, mean S.E., 2 h [2, 4] | Blood Sugar Level, mean S.E., 3 h [2, 4] | Blood Sugar Level, mean S.E., 4 h [2, 4] | Blood Sugar Level, mean S.E., 5 h [2, 4] | LD50 (in vivo) | minimal effective dose (animals) | Plasma glucose level, S.E., alloxanized fasted, Exp. ([3]; alloxanized (40 mg/kg alloxan I.V. 2 days before) fasted rats, 2 hours after saudin injection, control 116.66 ± 6.64, saudin S.E. 4.45) | Plasma glucose level, S.E., alloxanized non-fasted, Exp. ([3]; alloxanized (40 mg/kg alloxan I.V. 2 days before) non-fasted rats, 2 hours after saudin injection, control 141.2 ± 3.43, saudin S.E. 10.78) | effect on plasma glucose levels (in words) ([3]; fasted alloxanized and non-alloxanized rats, fed alloxanized rats) | Plasma glucose level, S.E., non-alloxanized fasted, Exp. ([3]; non-alloxanized fasted rats, 2 hours after saudin injection, control 81.14 ± 4.31, saudin S.E. 3.05) | Plasma glucose level, S.E., non-alloxanized non-fasted, Exp. ([3]; non-alloxanized non-fasted rats, 2 hours after saudin injection, control 132.14 ± 3.82, saudin S.E. 2.22*, significant vs control at P < 0.01)
C[C@H]1C(=O)O[C@]23CC[C@]4(C)C(=O)OC[C@@]45O[C@](c4ccoc4)(C[C@@H]1[C@@]25C)O3 [saudin, (-)-(1R,4R,5S,7R,9S,13S,16R) -7-(3-furanyl)-4,13,16-trimethyl-2,8,11,17-tetraoxapentacyclo [7.6.1.1^1,7.0^5,16.0^9,13]heptadeca-3,12-dione] | significant hypoglycemic effect | 109.75 mg/dL | 127.86 mg/dL | 107.00 mg/dL | 97.00 mg/dL | 98.00 mg/dL | does not produce a hypoglycemic effect | 222 ± 25 mg % | 288 ± 48.5 mg % | 346 ± 55.4 mg % | 342 ± 55.4 mg % | 355 ± 54.3 mg % | 443 ± 62.7 mg % | 500 ± 15.8 mg/kg | > 10 mg/kg | 103.5 mg/dL | 142.8 mg/dL | did not alter the plasma glucose levels | 79.86 mg/dL | 111.85 mg/dL
CCCCNC(=O)NS(=O)(=O)c1ccc(C)cc1 [tolbutamide, reference compound] |  |  |  |  |  |  |  |  | 185 ± 36 mg % | 212 ± 40.4 mg % | 235 ± 40.8 mg % | 262 ± 54 mg % | 347 ± 64 mg % |  |  |  |  |  |  | 
